The source of these data is US8853246B2 (Dow AgroSciences LLC, priority 2009, dated 2014).

In test [1] the test system is Green Peach Aphid (Myzus Persicae). Nature of the test: Insecticidal test for green peach aphid in foliar spray assay (col. MYZUPE). In kind it is in vivo. The note with it: for pest or weed control at 200 ppm: Myzus persicae, 72 h, read-out: MYZUPE 200 ppm (Corrected % Control, rating). An outline of the steps: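 Corrected % control derives from microscope counts of live aphids per plant, treated against diluent-only checks, 3 days after foliar spraying at ~25 °C and 40% RH. Test solution was 200 ppm in 0.025% aqueous Tween 20, applied to both leaf sides of infested cabbage seedlings, four pots each.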

For test [2], the system named is Sweetpotato Whitefly-Crawler (Bemisia Tabaci). Nature of the test: Insecticidal test for sweetpotato whitefly-crawler in foliar spray assay (col. BEMITA). The format is in vivo. The note with it: for pest or weed control at 200 ppm: Bemisia tabaci, read-out: BEMITA 200 ppm (Corrected % Control, rating). An outline of the steps: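 Percent control, Abbott-corrected against diluent-sprayed plants, from microscope counts of live nymphs 8-9 days after treatment. Test solution at 200 ppm in 0.025% aqueous Tween 20 applied to both leaf sides of egg-infested cotton after a 5-6 day hatch period (82° F, 50% RH).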

Read-outs that look alike come from different tables or passages of the source.

With `C=CCN(C(=O)C(C)CSC)c1sc(-c2cccnc2)nc1C` (stereo not shown) [Compound 426], the pest or weed control at 200 ppm in test [1] (green peach aphid) and in test [2] (sweetpotato whitefly-crawler) was 80 to 100% each time.
With `CCN(C(=O)CC[S+](C)[O-])c1sc(-c2cncc(F)c2)nc1F` (stereo not shown) [Compound 427], the pest or weed control at 200 ppm in test [1] (Abbott's correction formula) and in test [2] (Abbott's correction formula) was 80 to 100% throughout.
For `Cc1nc(-c2cccnc2)sc1NC(=O)C(F)(F)C(F)(F)C(F)(F)C(F)(F)F` [Compound 428], the pest or weed control at 200 ppm in test [1] (Abbott's correction formula) and in test [2] (Abbott's correction formula) was under 80% throughout.
For `Cc1nc(-c2cccnc2)sc1NC(=O)CN(C)C(=O)C(C)n1cccn1` (stereo not shown) [Compound 429], the pest or weed control at 200 ppm in test [1] (Abbott's correction formula) was 80 to 100%; in test [2] (Abbott's correction formula), under 80%.
Regarding `Cc1nc(-c2cccnc2)sc1N(C)C(=O)CN(C)C(=O)C(C)n1cccn1` (stereo not shown) [Compound 430], the pest or weed control at 200 ppm was 80 to 100% in test [1] (Abbott's correction formula) and under 80% in test [2] (Abbott's correction formula).
With `CC(C(=O)N(C)CC(=O)N(C)c1sc(-c2cccnc2)nc1Cl)n1cccn1` (stereo not shown) [Compound 431], the pest or weed control at 200 ppm is 80 to 100% in test [1] (Abbott's correction formula) and under 80% in test [2] (Abbott's correction formula).
For the compound `CN(C)CC(=O)N(C)c1sc(-c2cccnc2)nc1Cl` [Compound 432], the pest or weed control at 200 ppm in test [1] (Abbott's correction formula) and in test [2] (Abbott's correction formula) was under 80% in each case.
On to `Cc1nc(-c2cccnc2)sc1N(C)C(=O)CN(C)S(C)(=O)=O` [Compound 433], for which the pest or weed control at 200 ppm in test [1] (Abbott's correction formula) and in test [2] (Abbott's correction formula) was 80 to 100% throughout.
With `CN(C(=O)CN(C)S(C)(=O)=O)c1sc(-c2cccnc2)nc1Cl` [Compound 434], the pest or weed control at 200 ppm in test [1] (Abbott's correction formula) and in test [2] (Abbott's correction formula) was 80 to 100% in each case.
For `Cc1nc(-c2cccnc2)sc1NC(=O)CN(C)S(=O)(=O)/C=C/c1ccccc1` [Compound 435], the pest or weed control at 200 ppm in test [1] (Abbott's correction formula) and in test [2] (Abbott's correction formula) was under 80% in each case.
In the case of `Cc1nc(-c2cccnc2)sc1N(C)C(=O)CN(C)S(=O)(=O)/C=C/c1ccccc1` [Compound 436], the pest or weed control at 200 ppm in test [1] (Abbott's correction formula) and in test [2] (Abbott's correction formula) was under 80% throughout.
As to `CN(C(=O)CN(C)S(=O)(=O)/C=C/c1ccccc1)c1sc(-c2cccnc2)nc1Cl` [Compound 437], the pest or weed control at 200 ppm in test [1] (Abbott's correction formula) and in test [2] (Abbott's correction formula) was under 80% each time.
Consider `Cc1nc(-c2cccnc2)sc1NC(=O)CN(C)C(=O)c1cccs1` [Compound 438], for which the pest or weed control at 200 ppm in test [1] (Abbott's correction formula) was 80 to 100%; in test [2] (Abbott's correction formula), under 80%.
In the case of `Cc1nc(-c2cccnc2)sc1N(C)C(=O)[C@@H](C)N(C)C(=O)OCc1ccccc1` [Compound 439], the pest or weed control at 200 ppm in test [1] (Abbott's correction formula) and in test [2] (Abbott's correction formula) was under 80% throughout.
In the case of `C[C@H](C(=O)N(C)c1sc(-c2cccnc2)nc1Cl)N(C)C(=O)OCc1ccccc1` [Compound 440], the pest or weed control at 200 ppm in test [1] (Abbott's correction formula) and in test [2] (Abbott's correction formula) was under 80% in each case.
For `CSCCC(=O)N(C)c1sc(-c2cncc(F)c2)nc1Br` [Compound 441], the pest or weed control at 200 ppm in test [1] (Abbott's correction formula) and in test [2] (Abbott's correction formula) was 80 to 100% in each case.
Take `CSC(C)CC(=O)N(C)c1sc(-c2cncc(F)c2)nc1Cl` (stereo not shown) [Compound 442]: the pest or weed control at 200 ppm in test [1] (Abbott's correction formula) and in test [2] (Abbott's correction formula) was 80 to 100% in each case.
Consider `CSC(C)(C)CC(=O)N(C)c1sc(-c2cncc(F)c2)nc1Cl` [Compound 443], for which the pest or weed control at 200 ppm in test [1] (Abbott's correction formula) and in test [2] (Abbott's correction formula) was 80 to 100% in each case.
For the compound `CSC(C)C(C)C(=O)N(C)c1sc(-c2cncc(F)c2)nc1Cl` (stereo not shown) [Compound 444], the pest or weed control at 200 ppm in test [1] (Abbott's correction formula) and in test [2] (Abbott's correction formula) was 80 to 100% throughout.
As to `CCN(C(=O)CC(C)SC)c1sc(-c2cncc(F)c2)nc1Cl` (stereo not shown) [Compound 446], the pest or weed control at 200 ppm in test [1] (Abbott's correction formula) and in test [2] (Abbott's correction formula) was 80 to 100% throughout.
Consider `CCN(C(=O)CC(C)(C)SC)c1sc(-c2cncc(F)c2)nc1Cl` [Compound 447], for which the pest or weed control at 200 ppm in test [1] (Abbott's correction formula) and in test [2] (Abbott's correction formula) was 80 to 100% throughout.
As to `CSCCNC(=S)Nc1sc(-c2cncc(F)c2)nc1Cl` [Compound 450], the pest or weed control at 200 ppm in test [1] (Abbott's correction formula) and in test [2] (Abbott's correction formula) was 80 to 100% each time.
With `C[S+]([O-])CCC(=O)Nc1sc(-c2cncc(F)c2)nc1Cl` (stereo not shown) [Compound 451], the “MYZUPE 200 ppm (Corrected % Control, rating)” value in test [1] (Abbott's correction formula) is listed as “A (80-100)”. Moreover, the “BEMITA 200 ppm (Corrected % Control, rating)” value in test [2] (Abbott's correction formula) is reported as “B (Less than 80)”.
As for `CCN(C(=O)OC(C)(C)C)c1sc(-c2cccnc2)nc1Br` [Compound 452], the pest or weed control at 200 ppm in test [1] (Abbott's correction formula) and in test [2] (Abbott's correction formula) was 80 to 100% throughout.
On to `CSCCC(=O)N(C)c1sc(-c2ccc(F)nc2)nc1Cl` [Compound 453, N-[4-chloro-2-(6-fluoro-pyridin-3-yl)-thiazol-5-yl]-N-methyl-3-methylsulfanyl-propionamide], for which the pest or weed control at 200 ppm in test [1] (Abbott's correction formula) and in test [2] (Abbott's correction formula) was 80 to 100% in each case.
On to `CCN(C(=O)C(C)CSC)c1sc(-c2cncc(F)c2)nc1F` (stereo not shown) [Compound 456], for which the pest or weed control at 200 ppm was 80 to 100% in test [1] (Abbott's correction formula) and under 80% in test [2] (Abbott's correction formula).
For `CCN(C(=O)C(C)C)c1sc(-c2cccnc2)nc1Br` [Compound 457], the pest or weed control at 200 ppm in test [1] (Abbott's correction formula) and in test [2] (Abbott's correction formula) was 80 to 100% each time.
With `CCN(C(=O)CCSC)c1sc(-c2cccnc2)nc1Br` [Compound 458], the pest or weed control at 200 ppm in test [1] (Abbott's correction formula) and in test [2] (Abbott's correction formula) was 80 to 100% each time.
As to `COCCN(C(=O)OC(C)(C)C)c1sc(-c2cccnc2)nc1C` [Compound 460], the pest or weed control at 200 ppm in test [1] (Abbott's correction formula) and in test [2] (Abbott's correction formula) was under 80% throughout.
Turning to `Cc1nc(-c2cccnc2)sc1N(CC1CC1(F)F)C(=O)OC(C)(C)C` (stereo not shown) [Compound 461], the pest or weed control at 200 ppm in test [1] (Abbott's correction formula) is 80 to 100%; in test [2] (Abbott's correction formula) it was under 80%.
In the case of `Cc1nc(-c2cccnc2)sc1N(CC1CC1)C(=O)OC(C)(C)C` [Compound 462], the pest or weed control at 200 ppm in test [1] (Abbott's correction formula) was 80 to 100%; in test [2] (Abbott's correction formula), under 80%.
In the same order, the values of `C/C=C/CN(C(=O)OC(C)(C)C)c1sc(-c2cccnc2)nc1C` [Compound 463] are under 80% and under 80%.
In the same order, the values of `COC(=O)/C=C/CN(C(=O)C(C)CSC)c1sc(-c2cccnc2)nc1C` (stereo not shown) [Compound 464] are 80 to 100% and under 80%.
Consider `COCCN(C(=O)C(C)CSC)c1sc(-c2cccnc2)nc1C` (stereo not shown) [Compound 465], for which the pest or weed control at 200 ppm in test [1] (Abbott's correction formula) is 80 to 100%; in test [2] (Abbott's correction formula), under 80%.
In the same order, the values of `C/C=C/CN(C(=O)C(C)CSC)c1sc(-c2cccnc2)nc1C` (stereo not shown) [Compound 466] are 80 to 100% and under 80%.
Regarding `CSCC(C)C(=O)N(CC1CC1(F)F)c1sc(-c2cccnc2)nc1C` (stereo not shown) [Compound 467], the pest or weed control at 200 ppm is 80 to 100% in test [1] (Abbott's correction formula) and under 80% in test [2] (Abbott's correction formula).
Turning to `CSCC(C)C(=O)N(CC1CC1)c1sc(-c2cccnc2)nc1C` (stereo not shown) [Compound 468], the pest or weed control at 200 ppm in test [1] (Abbott's correction formula) is 80 to 100%; in test [2] (Abbott's correction formula), under 80%.
With `CN(C(=O)CC[S+](C)[O-])c1sc(-c2ccc(F)nc2)nc1Cl` (stereo not shown) [Compound 469], the pest or weed control at 200 ppm in test [1] (Abbott's correction formula) was 80 to 100%; in test [2] (Abbott's correction formula), under 80%.
